Experimental data published in US9902986B2, “Enterobactin conjugates and uses thereof” (Massachusetts Institute of Technology, priority 2013, dated 2018).

Tested on: E. coli CFT073 in the presence of S. aureus 25923
Test: Co-culture of E. coli CFT073 and S. aureus 25923
Format: cell-based, Escherichia coli
Details: co-culture in a 1:1 ratio
Text: (FIG. 20A) Images showing three cultures untreated with any antibiotics: E. coli CFT073, S. aureus 25923, and E. coli CFT073 and S. aureus 25923 co-culture (in a 1:1 ratio). (FIG. 20B) Images showing co-cultures of E. coli CFT073 and S. aureus 25923 (in a 1:1 ratio), in the absence of any antibiotics or in the presence of Amp, Amx, Ent-Amp, or Ent-Amx.

CC1(C)SC2C(NC(=O)C(NC(=O)CCCc3cn(CCOCCOCCOCCNC(=O)c4cc(O)c(O)c(C(=O)NC5COC(=O)C(NC(=O)c6cccc(O)c6O)COC(=O)C(NC(=O)c6cccc(O)c6O)COC5=O)c4)nn3)c3ccc(O)cc3)C(=O)N2C1C(=O)O (stereo not drawn) [Ent-Amx]
killing of E. coli CFT073 co-cultured with S. aureus 25923: killed E. coli CFT073

CC1(C)SC2C(NC(=O)C(NC(=O)CCCc3cn(CCOCCOCCOCCNC(=O)c4cc(O)c(O)c(C(=O)NC5COC(=O)C(NC(=O)c6cccc(O)c6O)COC(=O)C(NC(=O)c6cccc(O)c6O)COC5=O)c4)nn3)c3ccccc3)C(=O)N2C1C(=O)O (stereo not drawn) [Ent-Amp]
killing of E. coli CFT073 co-cultured with S. aureus 25923: killed E. coli CFT073
